Measured values from the supplement of paper PMC11061612.

Key:
EW-7 (Ewing's Sarcoma) [1] = assay: Bliss excess, mean over the matrix (fraction); higher = more synergy
Summary of the method: (§1)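 Cell lines in DMEM/F12 or RPMI with 10% FBS were plated in 1536-well plates, held 24 hours at 37°C, 5% CO2, then given two-drug dose matrices for 72 hours (DMSO typically 0.2%). Viability was read by CellTiter-Glo 2.0 luminescence and scaled as inhibition from 0 (vehicle wells) to 1 (blank wells). Combination Emax is the second-highest inhibition in the matrix; Bliss excess is observed combination effect minus expected EA + EB − EA·EB, EA and EB being single-agent effects.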

[2] = test system: 22RV1 (Prostate Carcinoma); assay: as above
Summary of the method: as §1

[3] = test system: NCI-H1651 (Lung Adenocarcinoma); assay: as above
Summary of the method: as §1

[4] = test system: NCI-H2087 (Lung Adenocarcinoma); assay: as above
Summary of the method: as §1

[5] = test system: KYSE-220 (Esophageal Squamous Cell Carcinoma); assay: combination Emax (second highest fraction inhibited in the dose matrix, 72 h); higher = more inhibition; extreme values may be limits of the assay
Summary of the method: as §1

EW-7 (Ewing's Sarcoma) [6] = assay: as above
Summary of the method: as §1

EB2 (Burkitt's Lymphoma) = assay: as above
Summary of the method: as §1

[7] = test system: LU-165 (Small Cell Lung Carcinoma); assay: as above
Summary of the method: as §1

HCC70 (Breast Carcinoma) = assay: as above
Summary of the method: as §1

[8] = test system: HCC1395 (Breast Carcinoma); assay: as above
Summary of the method: as §1

[9] = test system: SK-HEP-1 (Hepatocellular Carcinoma); assay: as above
Summary of the method: as §1

[10] = test system: A2780 (Ovarian Carcinoma); assay: as above
Summary of the method: as §1

[11] = test system: 22RV1 (Prostate Carcinoma); assay: as above
Summary of the method: as §1

WM1552C (Melanoma) = assay: as above
Summary of the method: as §1

PEO1 (Ovarian Carcinoma) = assay: as above
Summary of the method: as §1

IM-9 (Non-Cancerous) = assay: as above
Summary of the method: as §1

[12] = test system: NCI-H1703 (Squamous Cell Lung Carcinoma); assay: as above
Summary of the method: as §1

[13] = test system: MHH-ES-1 (Ewing's Sarcoma); assay: as above
Summary of the method: as §1

[14] = test system: CGTH-W-1 (Thyroid Gland Carcinoma); assay: as above
Summary of the method: as §1

[15] = test system: SW620 (Colorectal Carcinoma); assay: as above
Summary of the method: as §1
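For Bliss excess, mean over the matrix in this document: after 72 h of two-drug dosing.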

Structure (SMILES)	Bliss excess (EW-7 (Ewing's Sarcoma) [1])	Bliss excess [2]	Bliss excess [3]	Bliss excess [4]	combination Emax [5]	combination Emax (EW-7 (Ewing's Sarcoma) [6])	combination Emax (EB2 (Burkitt's Lymphoma))	combination Emax [7]	combination Emax (HCC70 (Breast Carcinoma))	combination Emax [8]	combination Emax [9]	combination Emax [10]	combination Emax [11]	combination Emax (WM1552C (Melanoma))	combination Emax (PEO1 (Ovarian Carcinoma))	combination Emax (IM-9 (Non-Cancerous))	combination Emax [12]	combination Emax [13]	combination Emax [14]	combination Emax [15]
Cc1cc2ncnn2cc1Nc1ncc2c(n1)n(C1CCOCC1)c(=O)n2C [AZD7648] + C[C@@H]1COCCN1C2=NC(=NC(=C2)C3(CC3)[S@](=N)(=O)C)C4=C5C=CNC5=NC=C4 [AZD6738] (first compound max 10 µM, 7x7, partner max 10 µM)	-0.0058	-0.0179	0.0217	0.0177	0.91	0.924	0.803	0.317	0.764	0.748	0.382	0.806	0.518	0.633	0.482	0.964	0.901	0.565	0.317	0.437
Cc1cc2ncnn2cc1Nc1ncc2c(n1)n(C1CCOCC1)c(=O)n2C [AZD7648] + COc1cc([C@@H]2c3cc4c(cc3[C@@H](O[C@@H]3O[C@@H]5CO[C@@H](C)O[C@H]5[C@H](O)[C@H]3O)[C@H]3COC(=O)[C@H]23)OCO4)cc(OC)c1O [Etoposide] (first compound max 10 µM, 7x7, partner max 10 µM)	0.0263	0.0583	0.073	0.0674	0.876	0.882	0.953	0.495	0.373	0.432	0.653	0.889	0.666	0.507	0.613	1	0.892	0.931	0.603	0.95
Cc1cc2ncnn2cc1Nc1ncc2c(n1)n(C1CCOCC1)c(=O)n2C [AZD7648] + O=C(c1cc(Cc2n[nH]c(=O)c3ccccc23)ccc1F)N1CCN(C(=O)C2CC2)CC1 [Olaparib] (first compound max 10 µM, 7x7, partner max 10 µM)	-0.0027	-0.0832	-0.0356	-0.0207	0.149	0.536	0.526	0.143	0.178	0.4	0.242	0.576	0.346	0.117	0.153	0.51	0.417	0.801	0.122	0.159
COc1cc2c(cc1OCCCCCOc1cc3c(cc1OC)C(=O)N1C=C(C)C[C@H]1C=N3)N=C[C@@H]1CC(C)=CN1C2=O [SG3199] + O=C(c1cc(Cc2n[nH]c(=O)c3ccccc23)ccc1F)N1CCN(C(=O)C2CC2)CC1 [Olaparib] (first compound max 0.001 µM, 7x7, partner max 10 µM)	-0.0341	-0.0421	-0.0788	-0.0224	0.119	0.303	0.278	0.0933	0.129	0.181	0.21	0.422	0.095	0.178	0.0793	0.38	0.0514	0.703	0.168	0.144
Cc1cc2ncnn2cc1Nc1ncc2c(n1)n(C1CCOCC1)c(=O)n2C [AZD7648] + C=CCn1c(=O)c2cnc(Nc3ccc(N4CCN(C)CC4)cc3)nc2n1-c1cccc(C(C)(C)O)n1 [AZD1775] (first compound max 10 µM, partner max 1 µM)	0.0024	-0.0214	-0.0812	-0.0176	0.882	0.898	0.819	0.419	0.559	0.594	0.513	0.827	0.46	0.551	0.439	0.996	0.962	0.686	0.265	0.526
CN(CCO)CC[C@H](CSc1ccccc1)Nc1ccc(S(=O)(=O)NC(=O)c2ccc(N3CCC([C@@H](O)c4ccccc4-c4ccc(Cl)cc4)CC3)cc2)cc1S(=O)(=O)C(F)(F)F [AZD4320] + C[C@@H](Nc1cc(F)cc(F)c1)c1cc(C(=O)N(C)C)cc2c(=O)cc(N3CCOCC3)oc12 [AZD8186] (first compound max 1 µM, 7x7, partner max 3 µM)	-0.014	-0.0076	-0.0074	-0.0271	0.35	0.947	0.536	0.717	0.781	0.476	0.778	0.543	0.456	0.424	0.613	0.972	0.531	0.946	0.476	0.84
CN(CCO)CC[C@H](CSc1ccccc1)Nc1ccc(S(=O)(=O)NC(=O)c2ccc(N3CCC([C@@H](O)c4ccccc4-c4ccc(Cl)cc4)CC3)cc2)cc1S(=O)(=O)C(F)(F)F [AZD4320] + Nc1ccn([C@@H]2O[C@H](CO)[C@@H](O)C2(F)F)c(=O)n1 [Gemcitabine] (first compound max 1 µM, 7x7, partner max 0.3 µM)	0.0189	-0.0286	0.0198	0.0051	0.674	1	0.932	0.828	0.507	0.211	0.936	0.893	0.748	0.817	0.607	1	0.915	0.964	0.887	0.871
C[C@@H](c1ccc2nccn2c1)n1nnc2ncc(-c3cnn(C)c3)nc21 [Savolitinib] + CC1(C)CCC(CN2CCN(c3ccc(C(=O)NS(=O)(=O)c4ccc(NCC5CCOCC5)c([N+](=O)[O-])c4)c(Oc4cnc5[nH]ccc5c4)c3)CC2)=C(c2ccc(Cl)cc2)C1 [Venetoclax] (first compound max 1 µM, 7x7, partner max 1 µM)	-0.0242	-0.0952	-0.0356	-0.0716	0.146	0.118	0.153	0.221	0.165	0.247	0.164	0.14	0.214	0.0794	0.219	0.385	0.139	0.185	0.0942	0.124
N#Cc1cnc(Nc2cc(NC[C@H]3CNCCO3)c(C(F)(F)F)cn2)cn1 [SRA737] + O=c1[nH]cc(F)c(=O)[nH]1 [5-Fluorouracil] (first compound max 10 µM, 7x7, partner max 20 µM)	-0.0504	0.0268	-0.0323	-0.0122	0.497	0.814	0.88	0.413	0.743	0.653	0.416	0.72	0.616	0.728	0.458	1	0.885	0.697	0.646	0.422
CN(CCO)CC[C@H](CSc1ccccc1)Nc1ccc(S(=O)(=O)NC(=O)c2ccc(N3CCC([C@@H](O)c4ccccc4-c4ccc(Cl)cc4)CC3)cc2)cc1S(=O)(=O)C(F)(F)F [AZD4320] + Cc1cc2ncnn2cc1Nc1ncc2c(n1)n(C1CCOCC1)c(=O)n2C [AZD7648] (first compound max 1 µM, 7x7, partner max 10 µM)	0.0633	-0.0532	-0.0454	-0.0145	0.11	0.966	0.431	0.516	0.356	0.263	0.162	0.51	0.426	0.143	0.386	0.696	0.322	0.497	0.163	0.233
N#Cc1cnc(Nc2cc(NC[C@H]3CNCCO3)c(C(F)(F)F)cn2)cn1 [SRA737] + Nc1ccn([C@@H]2O[C@H](CO)[C@@H](O)C2(F)F)c(=O)n1 [Gemcitabine] (first compound max 10 µM, 7x7, partner max 0.3 µM)	0.0349	-0.0663	0.0124	0.0059	0.78	1	0.945	0.544	0.823	0.725	0.724	0.92	0.734	0.796	0.728	1	0.952	0.986	0.846	0.889
COc1cc2ncnc(Nc3ccc(F)c(Cl)c3)c2cc1OCCCN1CCOCC1 [Gefitinib] + CC(C)n1c(=O)n(C)c2cnc3cc(F)c(-c4ccc(OCCCN5CCCCC5)nc4)cc3c21 [AZD1390] (first compound max 10 µM, 7x7, partner max 0.3 µM)	-0.0416	-0.079	-0.0554	-0.135	0.431	0.328	0.38	0.173	0.162	0.192	0.369	0.485	0.148	0.12	0.175	0.424	0.305	0.182	0	0.0744
Cc1nc(Nc2ncc(C(=O)Nc3c(C)cccc3Cl)s2)cc(N2CCN(CCO)CC2)n1 [Dasatinib] + CC(=O)Nc1cccc(-n2c(=O)n(C3CC3)c(=O)c3c(Nc4ccc(I)cc4F)n(C)c(=O)c(C)c32)c1 [Trametinib] (first compound max 2 µM, 7x7, partner max 1 µM)	-0.0074	-0.0578	-0.042	-0.0024	0.555	0.213	0.531	0.144	0.288	0.527	0.325	0.841	0.361	0.764	0.492	0.876	0.782	0.135	0.982	0.694
